Values of other authors as cited in article PMC6376154 (International Journal for Parasitology: Drugs and Drug …, 2019).
Where two headings read alike, the source gives them in different places.

System: P. falciparum 3D7 asexual blood stage
Conditions: cited from earlier work
[1] = MMV Malaria Box data sheet, ref MMV data sheets
[2] = MMV Malaria Box data sheet, ref MMV data sheets, read-out: EC50_nM
[3] = source GNF, ref ChEMBL_NTD, read-out: CHEMBL EC50
[4] = source GSK, ref ChEMBL_NTD, read-out: CHEMBL EC50
[5] = ChEMBL-NTD value per source (GNF, GSK, StJude), several values in a cell follow the order of the sources, read-out: CHEMBL EC50
[6] = MMV Malaria Box sheet, ref MMV data sheets
[7] = MMV Malaria Box data sheet (supplement mmc2.xls), ref MMV data sheet
[8] = value(s) per source (GSK, GNF, StJude), separated by semicolon, ref ChEMBL-NTD, read-out: CHEMBL EC50
[9] = MMV Malaria Box sheet, ref MMV data sheets, read-out: EC50_nM
[10] = MMV Malaria Box data sheet (supplement mmc2.xls), ref MMV data sheet, read-out: EC50_nM
[11] = source StJude, ref ChEMBL_NTD, read-out: CHEMBL EC50

Compound: CCOC(=O)c1c(NC(=O)c2ccccc2)sc2c(O)c(CN(CC)CC)ccc12 [MMV665831]
- percent_inh @ 5 uM [1]: 96%
- EC50 [2]: 205 nM
- EC50 [3]: 267 nM
- EC50 [4]: 969 nM

Compound: O=C(Nc1ccc(-c2nc3ccccc3[nH]2)cc1)c1ccc(Cl)c(Cl)c1 [MMV665840]
- EC50 [5]: 523 nM

Compound: Oc1c2c(nc3ccccc13)CCCC2 [MMV665843]
- percent_inh @ 5 uM [6]: 82%
- EC50 [3]: 628 nM

Compound: Oc1ccc(Cl)cc1CNc1nc2ccccc2[nH]1 [MMV665850]
- percent_inh @ 5 uM [1]: 95%
- EC50 [3]: 921 nM

Compound: O=C(Nc1ccc(Cl)c(Cl)c1)Nc1ccc(Cl)c(Cl)c1 [MMV665852]
- EC50 [5]: 1030 nM

Compound: CCOc1c(Cl)cc(CNC(C)C(O)c2ccccc2)cc1OC (stereo not shown) [MMV665857]
- percent_inh @ 5 uM [7]: 98%
- EC50 [8]: 1650 nM

Compound: CCCCNc1nc(NC(C)(C)C)nc(NC(C)(C)C)n1 [MMV665864]
- EC50 [5]: 2160 nM

Compound: Cc1cc(Nc2ccc(C)c(Cl)c2)n2nc(C(F)(F)F)nc2n1 [MMV665874]
- percent_inh @ 5 uM [1]: 98%
- EC50 [2]: 6.71 nM
- EC50 [4]: 15.8 nM

Compound: Cn1c(=O)n(C)c2cc(CNCCNc3ccnc4cc(Cl)ccc34)ccc21 [MMV665875]
- EC50 [5]: 140 nM

Compound: CCC(c1ccccc1)c1nn2c(-c3cccs3)nnc2s1 (stereo not shown) [MMV665876]
- percent_inh @ 5 uM [1]: 99%
- EC50 [2]: 259 nM
- EC50 [4]: 167 nM

Compound: COc1cccc(NC(=O)[C@H](C(C)C)n2c(=O)[nH]c3ccccc3c2=O)c1 [MMV665878]
- percent_inh @ 5 uM [1]: 99%
- EC50 [2]: 139 nM
- EC50 [4]: 266 nM

Compound: CC(C)(C)C(=O)Nc1ccc(C(=O)Nc2cccc(-c3nc4ccccc4[nH]3)c2)cc1 [MMV665879]
- percent_inh @ 5 uM [7]: 91%
- EC50 [8]: 282 nM

Compound: COc1ccc(CNC(=O)c2cc3c(=O)n4ccccc4nc3n(CCc3ccccc3)c2=N)cc1 [MMV665881]
- EC50 [5]: 330 nM

Compound: OC(CNC1CCCCC1)Cn1c2ccc(I)cc2c2cc(I)ccc21 (stereo not shown) [MMV665882]
- EC50 [5]: 337 nM

Compound: O=C(Nc1cccc(-c2nc3ccccc3[nH]2)c1)c1cccc(NC(=O)c2ccco2)c1 [MMV665883]
- percent_inh @ 5 uM [6]: 95%
- EC50 [9]: 745 nM
- EC50 [4]: 360 nM

Compound: CC(Oc1ccc(NC(=O)c2cccs2)cc1)C(=O)c1ccc(Cl)cc1 (stereo not shown) [MMV665886]
- EC50 [5]: 774 nM

Compound: O=C(Nc1ccccc1O)c1ccc(Oc2cccc(C(=O)Nc3ccccc3O)c2)cc1 [MMV665888]
- percent_inh @ 5 uM [7]: 91%
- EC50 [8]: 799 nM

Compound: COc1ccc(-c2nonc2NC(=O)c2cccc(C)c2)cc1OC [MMV665890]
- percent_inh @ 5 uM [7]: 95%
- EC50 [8]: 806 nM

Compound: c1ccc(-c2ccc(-c3nc4ccccc4[nH]3)cc2)cc1 [MMV665891]
- percent_inh @ 5 uM [7]: 52%
- EC50 [10]: 1070 nM
- EC50 [8]: 809 nM

Compound: CC(=O)c1sc(NC(=O)Nc2ccc(C)cc2C)nc1C [MMV665894]
- EC50 [5]: 906 nM

Compound: COc1ccc2nc(N)nc(C)c2c1 [MMV665897]
- percent_inh @ 5 uM [6]: 63%
- EC50 [4]: 927 nM

Compound: COc1cc(C(=O)Nc2ccc(-c3nc4ccccc4[nH]3)cc2)cc(OC)c1OC [MMV665898]
- EC50 [5]: 982 nM

Compound: O=C(c1ccccc1F)N(Cc1ccc(Cl)cc1)c1ccccn1 [MMV665899]
- percent_inh @ 5 uM [7]: 59%
- EC50 [8]: 1020 nM

Compound: O=C(Nc1ccc(CN2CCOCC2)cc1)c1ccc(-c2ccc(Br)cc2)o1 [MMV665901]
- percent_inh @ 5 uM [7]: 96%
- EC50 [10]: 1360 nM
- EC50 [8]: 1120 nM

Compound: N=c1n(CCN2CCCCC2)c2ccccc2n1CC(O)c1cccc(Br)c1 (stereo not shown) [MMV665902]
- percent_inh @ 5 uM [7]: 98%
- EC50 [10]: 893 nM
- EC50 [8]: 1140 nM

Compound: COCCn1c(C)nc2ccccc2c1=O [MMV665904]
- percent_inh @ 5 uM [6]: 59%
- EC50 [4]: 1460 nM

Compound: Cc1ccc(-c2cc(C(=O)Nc3ccc(S(=O)(=O)N4CCCCC4)cc3)[nH]n2)c(O)c1 [MMV665906]
- percent_inh @ 5 uM [7]: 94%
- EC50 [10]: 535 nM
- EC50 [8]: 1770 nM

Compound: COc1ccc(N2CCN(C(CNC(=O)CC(C)(C)C)c3ccc4c(c3)OCO4)CC2)cc1 (stereo not shown) [MMV665908]
- percent_inh @ 5 uM [6]: 95%
- EC50 [11]: 4280 nM

Compound: O=C(Nc1nc(-c2ccccn2)cs1)c1ccccc1Br [MMV665909]
- percent_inh @ 5 uM [1]: 97%
- EC50 [2]: 1360 nM
- EC50 [11]: 4530 nM

Compound: CCOc1ccc(-c2nc(NC(=O)c3cccc(S(C)(=O)=O)c3)sc2C)cc1 [MMV665913]
- percent_inh @ 5 uM [7]: 95%
- EC50 [8]: 15000 nM

Compound: COc1ccccc1N1CCN(C(CNS(=O)(=O)c2ccc(Cl)cc2)c2cccnc2)CC1 (stereo not shown) [MMV665914]
- percent_inh @ 5 uM [7]: 93%
- EC50 [8]: 15000 nM

Compound: COc1ccc(-c2nc(NC(=O)CS(=O)(=O)c3ccc(F)cc3)sc2C)cc1 [MMV665915]
- percent_inh @ 5 uM [1]: 97%
- EC50 [2]: 448 nM
- EC50 [3]: 212 nM
- EC50 [4]: 243 nM

Compound: COc1ccccc1CNC(=O)CCn1c(=O)[nH]c2ccccc2c1=O [MMV665916]
- percent_inh @ 5 uM [1]: 64%
- EC50 [2]: 72.6 nM
- EC50 [3]: 537 nM

Compound: O=C(Nc1ccc(Cl)cc1)N1CCN(c2ccc3nncn3n2)CC1 [MMV665917]
- percent_inh @ 5 uM [1]: 62%
- EC50 [3]: 2060 nM

Compound: O=C(CSc1ccc2nnc(-c3cccc(F)c3)n2n1)Nc1ccc2c(c1)OCO2 [MMV665918]
- percent_inh @ 5 uM [7]: 92%
- EC50 [8]: 2110 nM

Compound: N=c1c2ccccc2nnn1-c1cccc(C(F)(F)F)c1 [MMV665923]
- EC50 [5]: 134 nM

Compound: COc1ccc(C(=O)C2CC2c2ccc(Cl)cc2)cc1 (stereo not shown) [MMV665924]
- percent_inh @ 5 uM [6]: 94%
- EC50 [9]: 1060 nM
- EC50 [3]: 217 nM

Compound: O=C(CCl)NCCOc1ccc(Cl)cc1Cl [MMV665927]
- EC50 [5]: 538 nM

Compound: CCC(C)NCC(O)(c1ccc(Cl)cc1)c1ccc(Cl)cc1 (stereo not shown) [MMV665928]
- percent_inh @ 5 uM [1]: 98%
- EC50 [2]: 642 nM
- EC50 [3]: 639 nM
- EC50 [4]: 843 nM

Compound: CCCCNCC(O)(c1ccc(Cl)cc1)c1ccc(Cl)cc1 [MMV665929]
- percent_inh @ 5 uM [7]: 97%
- EC50 [10]: 843 nM
- EC50 [8]: 720 nM

Compound: O=C1c2ccccc2-c2nnc(-c3ccc(Br)cc3)cc21 [MMV665934]
- percent_inh @ 5 uM [6]: 99%
- EC50 [9]: 1070 nM
- EC50 [3]: 2500 nM

Compound: FC(F)(F)c1ccc(Nc2nnnc3ccccc23)cc1 [MMV665935]
- percent_inh @ 5 uM [7]: 77%

Compound: Cc1ccc(S(=O)(=O)c2c(COC(=O)c3cccc(C)c3)c(-c3ccccc3)nn2C)cc1 [MMV665936]
- percent_inh @ 5 uM [6]: 95%
- EC50 [3]: 8400 nM

Compound: O=C(Nc1ccsc1C(=O)NC1CCCCC1)c1ccc(F)cc1 [MMV665939]
- percent_inh @ 5 uM [7]: 86%
- EC50 [8]: 1210 nM

Compound: CCOc1ccc(C=Cc2nc(=O)c3ccccc3o2)cc1 [MMV665940]
- percent_inh @ 5 uM [1]: 95%
- EC50 [2]: 560 nM
- EC50 [11]: 188 nM

Compound: CN(C)c1ccc(C(O)(c2ccc(N(C)C)cc2)c2ccc(N(C)C)cc2)cc1 [MMV665941]
- percent_inh @ 5 uM [1]: 96%
- EC50 [2]: 255 nM
- EC50 [11]: 620 nM

Compound: Nc1ccc(-c2nc3cc(Cc4ccc5[nH]c(-c6ccc(N)cc6)nc5c4)ccc3[nH]2)cc1 [MMV665943]
- percent_inh @ 5 uM [6]: 100%
- EC50 [9]: 1420 nM
- EC50 [3]: 243 nM
- EC50 [4]: 512 nM
- EC50 [11]: 1080 nM

Compound: COc1ccc(CN2CCN(Cc3ccccc3)CC2)c(O)c1 [MMV665944]
- percent_inh @ 5 uM [6]: 96%
- EC50 [9]: 1080 nM
- EC50 [11]: 1090 nM

Compound: CC(C)=CCN1CCC(C(=O)Nc2ccc(-c3nc4ccccc4[nH]3)cc2)CC1 [MMV665946]
- percent_inh @ 5 uM [7]: 96%
- EC50 [10]: 1160 nM

Compound: O=C(Nc1ccccc1O)c1ccc(-c2ccc(Cl)cc2Cl)o1 [MMV665948]
- percent_inh @ 5 uM [7]: 97%
- EC50 [8]: 2460 nM

Compound: Oc1ccc(C(=C(Cl)Cl)c2ccc(O)cc2)cc1 [MMV665949]
- percent_inh @ 5 uM [6]: 95%
- EC50 [11]: 2470 nM
